Test system: Klebsiella pneumoniae (KPN) isolates
Experiment: MIC of compounds alone and combined with antibacterials, broth microdilution (CLSI)
Format: cell-based
In short: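 First, log-phase suspensions are brought to 5.10^5 CFU/mL final in ca-MHB; plates then incubate 16-20 h at 35° C in air. Growth is judged visually, giving the compound MIC alone and the antibacterial MIC at each compound concentration.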

Measured: MIC ATB in combination

C=CC1=C(C(=O)O)N2C(=O)[C@@H](NC(=O)/C(=N\OCC(=O)O)c3csc(N)n3)[C@H]2SC1 [FIX, Cefixime]
128 µg/mL: KPN UFR42, AF2 @ 8 μg/mL | KPN UFR53, CLA @ 4 μg/mL | KPN UFR65, CLA @ 4 μg/mL | KPN UFR67, CLA @ 4 μg/mL | KPN UFR77, CLA @ 4 μg/mL
<=0.25 μg/mL: KPN UFR22_O, AF3 @ 8 μg/mL | KPN UFR22_O, CLA @ 4 μg/mL | KPN UFR23, AF2 @ 8 μg/mL | KPN UFR23, CLA @ 4 μg/mL | KPN UFR33, AF2 @ 8 μg/mL | KPN UFR53, AF3 @ 8 μg/mL | KPN UFR65, AF3 @ 8 μg/mL | KPN UFR77, AF3 @ 8 μg/mL | KPN UFR80, AF2 @ 8 μg/mL | KPN UFR80, AF3 @ 8 μg/mL | KPN UFR215, AF2 @ 8 μg/mL | KPN UFR215, AF3 @ 8 μg/mL
>128 µg/mL: KPN UFR27, CLA @ 4 μg/mL | KPN UFR33, AF3 @ 8 μg/mL | KPN UFR33, CLA @ 4 μg/mL | KPN UFR42, AF3 @ 8 μg/mL | KPN UFR42, CLA @ 4 μg/mL | KPN UFR43, CLA @ 4 μg/mL | KPN UFR46, AF2 @ 8 μg/mL | KPN UFR46, AF3 @ 8 μg/mL | KPN UFR46, CLA @ 4 μg/mL | KPN UFR76, AF2 @ 8 μg/mL | KPN UFR76, AF3 @ 8 μg/mL | KPN UFR76, CLA @ 4 μg/mL | KPN UFR78, AF2 @ 8 μg/mL | KPN UFR78, AF3 @ 8 μg/mL | KPN UFR78, CLA @ 4 μg/mL | KPN UFR79, CLA @ 4 μg/mL | KPN UFR81, CLA @ 4 μg/mL
32 µg/mL: KPN UFR81, AF3 @ 8 μg/mL
64 µg/mL: KPN UFR24, CLA @ 4 μg/mL | KPN UFR25, CLA @ 4 μg/mL | KPN UFR28, CLA @ 4 μg/mL | KPN UFR66, CLA @ 4 μg/mL | KPN UFR68, CLA @ 4 μg/mL | KPN UFR81, AF2 @ 8 μg/mL
8 µg/mL: KPN UFR27, AF2 @ 8 μg/mL | KPN UFR27, AF3 @ 8 μg/mL
1 µg/mL: KPN UFR215, CLA @ 4 μg/mL
2 µg/mL: KPN UFR28, AF3 @ 8 μg/mL | KPN UFR79, AF2 @ 8 μg/mL | KPN UFR79, AF3 @ 8 μg/mL
0.5 µg/mL: KPN UFR24, AF2 @ 8 μg/mL | KPN UFR24, AF3 @ 8 μg/mL | KPN UFR65, AF2 @ 8 μg/mL | KPN UFR68, AF2 @ 8 μg/mL | KPN UFR68, AF3 @ 8 μg/mL | KPN UFR77, AF2 @ 8 μg/mL | KPN UFR80, CLA @ 4 μg/mL
<0.25 µg/mL: KPN UFR23, AF3 @ 8 μg/mL | KPN UFR25, AF2 @ 8 μg/mL | KPN UFR25, AF3 @ 8 μg/mL | KPN UFR28, AF2 @ 8 μg/mL | KPN UFR43, AF2 @ 8 μg/mL | KPN UFR43, AF3 @ 8 μg/mL | KPN UFR53, AF2 @ 8 μg/mL
4 µg/mL: KPN UFR66, AF2 @ 8 μg/mL | KPN UFR66, AF3 @ 8 μg/mL | KPN UFR67, AF2 @ 8 μg/mL | KPN UFR67, AF3 @ 8 μg/mL
